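Five compound concentrations were applied to cells in 96-well plates for 48 hours; endpoints were derived by simple linear interpolation of the resulting dose-response curve. Here, GI50 denotes the concentration required for 50% inhibition of growth. TGI: total growth inhibition.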
What was measured:
Assay in all cases: NCI tumour cell line growth inhibition, 48 h
SF-295 CNS = system: SF-295 CNS
CAKI-1 renal = system: CAKI-1 renal
BT-549 breast = system: BT-549 breast
SK-MEL-5 melanoma = system: SK-MEL-5 melanoma
HS 578T breast = system: HS 578T breast
SK-MEL-2 melanoma = system: SK-MEL-2 melanoma
MCF7 breast = system: MCF7 breast
HOP-62 NSCLC = system: HOP-62 NSCLC
HCT-116 colon = system: HCT-116 colon
UACC-62 melanoma = system: UACC-62 melanoma
SW-620 colon = system: SW-620 colon
SF-539 CNS = system: SF-539 CNS
TK-10 renal = system: TK-10 renal
PC-3 prostate = system: PC-3 prostate
SNB-19 CNS = system: SNB-19 CNS
NCI-H226 lung = system: NCI-H226 lung
UO-31 renal = system: UO-31 renal
COLO 205 colon = system: COLO 205 colon
DU-145 prostate = system: DU-145 prostate
SK-MEL-28 melanoma = system: SK-MEL-28 melanoma
NCI/ADR-RES ovarian = system: NCI/ADR-RES ovarian
IGROV1 ovarian = system: IGROV1 ovarian
NCI-H23 lung = system: NCI-H23 lung
K-562 leukemia = system: K-562 leukemia
786-0 renal = system: 786-0 renal
NCI-H460 lung = system: NCI-H460 lung
MDA-MB-435 = system: MDA-MB-435
OVCAR-3 ovarian = system: OVCAR-3 ovarian
CCRF-CEM leukemia = system: CCRF-CEM leukemia
SNB-75 CNS = system: SNB-75 CNS
T-47D breast = system: T-47D breast
U251 CNS = system: U251 CNS
HCT-15 colon = system: HCT-15 colon
SK-OV-3 ovarian = system: SK-OV-3 ovarian
HT29 colon = system: HT29 colon
M14 melanoma = system: M14 melanoma
NCI-H522 lung = system: NCI-H522 lung
OVCAR-8 ovarian = system: OVCAR-8 ovarian
A549 NSCLC = system: A549 NSCLC
KM12 colon = system: KM12 colon
HOP-92 NSCLC = system: HOP-92 NSCLC
RXF 393 renal = system: RXF 393 renal
MOLT-4 leukemia = system: MOLT-4 leukemia
A498 renal = system: A498 renal
SF-268 CNS = system: SF-268 CNS
UACC-257 melanoma = system: UACC-257 melanoma
EKVX NSCLC = system: EKVX NSCLC
SN12C renal = system: SN12C renal
OVCAR-4 ovarian = system: OVCAR-4 ovarian
HCC-2998 colon = system: HCC-2998 colon
ACHN renal = system: ACHN renal
OVCAR-5 ovarian = system: OVCAR-5 ovarian
RPMI-8226 leukemia = system: RPMI-8226 leukemia
SR leukemia = system: SR leukemia
HL-60(TB) leukemia = system: HL-60(TB) leukemia
MDA-MB-231 breast = system: MDA-MB-231 breast
LOX IMVI melanoma = system: LOX IMVI melanoma

COc1ccc(-c2[nH]c(=O)n(C3OC(CO)C(O)C(O)C3O)c(=O)c2C#N)cc1 (centres undefined)
TGI (SF-295 CNS): > 100 µM
TGI (CAKI-1 renal): > 100 µM
TGI (BT-549 breast): > 100 µM
TGI (SK-MEL-5 melanoma): > 100 µM
TGI (HS 578T breast): > 100 µM
TGI (SK-MEL-2 melanoma): > 100 µM
TGI (MCF7 breast): > 100 µM
TGI (HOP-62 NSCLC): > 100 µM
TGI (HCT-116 colon): > 100 µM
TGI (UACC-62 melanoma): > 100 µM
TGI (SW-620 colon): > 100 µM
TGI (SF-539 CNS): > 100 µM
TGI (TK-10 renal): > 100 µM
TGI (PC-3 prostate): > 100 µM
TGI (SNB-19 CNS): > 100 µM
TGI (NCI-H226 lung): > 100 µM
TGI (UO-31 renal): > 100 µM
TGI (COLO 205 colon): > 100 µM
TGI (DU-145 prostate): > 100 µM
TGI (SK-MEL-28 melanoma): > 100 µM
TGI (NCI/ADR-RES ovarian): > 100 µM
TGI (IGROV1 ovarian): > 100 µM
TGI (NCI-H23 lung): > 100 µM
TGI (K-562 leukemia): > 100 µM
TGI (786-0 renal): > 100 µM
TGI (NCI-H460 lung): > 100 µM
TGI (MDA-MB-435): > 100 µM
TGI (OVCAR-3 ovarian): > 100 µM
TGI (CCRF-CEM leukemia): > 100 µM
TGI (SNB-75 CNS): > 100 µM
TGI (T-47D breast): > 100 µM
TGI (U251 CNS): > 100 µM
TGI (HCT-15 colon): > 100 µM
TGI (SK-OV-3 ovarian): > 100 µM
TGI (HT29 colon): > 100 µM
TGI (M14 melanoma): > 100 µM
TGI (NCI-H522 lung): > 100 µM
TGI (OVCAR-8 ovarian): > 100 µM
TGI (A549 NSCLC): > 100 µM
TGI (KM12 colon): > 100 µM
TGI (HOP-92 NSCLC): > 100 µM
TGI (RXF 393 renal): > 100 µM
TGI (MOLT-4 leukemia): > 100 µM
TGI (A498 renal): > 100 µM
TGI (SF-268 CNS): > 100 µM
TGI (UACC-257 melanoma): > 100 µM
TGI (EKVX NSCLC): > 100 µM
TGI (SN12C renal): > 100 µM
TGI (OVCAR-4 ovarian): > 100 µM
TGI (HCC-2998 colon): > 100 µM
TGI (ACHN renal): > 100 µM
TGI (OVCAR-5 ovarian): > 100 µM
TGI (RPMI-8226 leukemia): > 100 µM
TGI (SR leukemia): > 100 µM
TGI (HL-60(TB) leukemia): > 100 µM
TGI (MDA-MB-231 breast): > 100 µM

CC(=O)Nc1ccc(-c2csc(Nc3ccc(-c4csc(-c5ccccc5)n4)cc3)n2)cc1
GI50 (SF-295 CNS): 36.3 µM
TGI (SF-295 CNS): > 50 µM
GI50 (CAKI-1 renal): 20.9 µM
TGI (CAKI-1 renal): > 50 µM
GI50 (BT-549 breast): 11.4 µM
TGI (BT-549 breast): > 50 µM
GI50 (SK-MEL-5 melanoma): 11.1 µM
TGI (SK-MEL-5 melanoma): 41.2 µM
GI50 (HS 578T breast): 40.9 µM
TGI (HS 578T breast): > 50 µM
GI50 (MCF7 breast): 16.3 µM
TGI (MCF7 breast): > 50 µM
GI50 (HOP-62 NSCLC): > 50 µM
TGI (HOP-62 NSCLC): > 50 µM
GI50 (HCT-116 colon): > 50 µM
TGI (HCT-116 colon): > 50 µM
GI50 (UACC-62 melanoma): 5.98 µM
TGI (UACC-62 melanoma): > 50 µM
GI50 (SW-620 colon): > 50 µM
TGI (SW-620 colon): > 50 µM
GI50 (TK-10 renal): 16.4 µM
TGI (TK-10 renal): > 50 µM
GI50 (PC-3 prostate): 20.6 µM
TGI (PC-3 prostate): > 50 µM
GI50 (SNB-19 CNS): 16.5 µM
TGI (SNB-19 CNS): > 50 µM
GI50 (UO-31 renal): > 50 µM
TGI (UO-31 renal): > 50 µM
GI50 (COLO 205 colon): > 50 µM
TGI (COLO 205 colon): > 50 µM
GI50 (DU-145 prostate): 36.1 µM
TGI (DU-145 prostate): > 50 µM
GI50 (SK-MEL-28 melanoma): 7.14 µM
TGI (SK-MEL-28 melanoma): 42.9 µM
GI50 (NCI/ADR-RES ovarian): 11.1 µM
TGI (NCI/ADR-RES ovarian): 37.2 µM
GI50 (IGROV1 ovarian): 10.9 µM
TGI (IGROV1 ovarian): 40.2 µM
GI50 (NCI-H23 lung): 3.73 µM
TGI (NCI-H23 lung): 20.1 µM
GI50 (K-562 leukemia): 5.52 µM
TGI (K-562 leukemia): > 50 µM
GI50 (786-0 renal): 32.2 µM
TGI (786-0 renal): > 50 µM
GI50 (NCI-H460 lung): 7.94 µM
TGI (NCI-H460 lung): > 50 µM
GI50 (MDA-MB-435): 19.1 µM
TGI (MDA-MB-435): > 50 µM
GI50 (OVCAR-3 ovarian): > 50 µM
TGI (OVCAR-3 ovarian): > 50 µM
GI50 (CCRF-CEM leukemia): > 50 µM
TGI (CCRF-CEM leukemia): > 50 µM
GI50 (T-47D breast): 26.5 µM
TGI (T-47D breast): > 50 µM
GI50 (U251 CNS): 7.16 µM
TGI (U251 CNS): 21.3 µM
GI50 (HCT-15 colon): 17.4 µM
TGI (HCT-15 colon): > 50 µM
GI50 (SK-OV-3 ovarian): 9.08 µM
TGI (SK-OV-3 ovarian): > 50 µM
GI50 (M14 melanoma): > 50 µM
TGI (M14 melanoma): > 50 µM
GI50 (LOX IMVI melanoma): 31 µM
TGI (LOX IMVI melanoma): > 50 µM
GI50 (NCI-H522 lung): 16.3 µM
TGI (NCI-H522 lung): 41.5 µM
GI50 (OVCAR-8 ovarian): 10.7 µM
TGI (OVCAR-8 ovarian): > 50 µM
GI50 (A549 NSCLC): 12.6 µM
TGI (A549 NSCLC): > 50 µM
GI50 (KM12 colon): 25.5 µM
TGI (KM12 colon): > 50 µM
GI50 (HOP-92 NSCLC): > 50 µM
TGI (HOP-92 NSCLC): > 50 µM
GI50 (RXF 393 renal): 13.3 µM
TGI (RXF 393 renal): > 50 µM
GI50 (A498 renal): 12.5 µM
TGI (A498 renal): 25.6 µM
GI50 (SF-268 CNS): 19.9 µM
TGI (SF-268 CNS): > 50 µM
GI50 (UACC-257 melanoma): > 50 µM
TGI (UACC-257 melanoma): > 50 µM
GI50 (EKVX NSCLC): 12.9 µM
TGI (EKVX NSCLC): > 50 µM
GI50 (SN12C renal): 5.64 µM
TGI (SN12C renal): 23.9 µM
GI50 (ACHN renal): 7.53 µM
TGI (ACHN renal): 27.9 µM
GI50 (OVCAR-5 ovarian): 12.6 µM
TGI (OVCAR-5 ovarian): 42.6 µM
GI50 (RPMI-8226 leukemia): > 50 µM
TGI (RPMI-8226 leukemia): > 50 µM
GI50 (SR leukemia): 9.64 µM
TGI (SR leukemia): 45.2 µM
GI50 (HL-60(TB) leukemia): 37.4 µM
TGI (HL-60(TB) leukemia): > 50 µM
GI50 (MDA-MB-231 breast): 6.94 µM
TGI (MDA-MB-231 breast): 27.8 µM

From PubChem BioAssay (NCI)
